Values quoted from earlier work as cited in PMC9164236 (ACS Organic & Inorganic Au, 2022).

Compound: CC[C@@H](C(=O)[C@@H](C)[C@@H](O)[C@H](C)[C@@H]1O[C@@H]([C@@H](CC)C(=O)O)CC[C@@H]1C)[C@H]1O[C@]2(C=C[C@@H](O)[C@]3(CC[C@@](C)([C@H]4CC[C@](O)(CC)[C@H](C)O4)O3)O2)[C@H](C)C[C@@H]1C [Sal, Salinomycin]
- Stability in the presence of iron(III) chloride over time: degrade
- Reduction of the proportion of CSCs relative to paclitaxel (breast CSCs): > 100 fold
